# Test results: patent US20250034135A1, “ANTI-APOPTOTIC PROTEIN BCL-2 INHIBITOR, PHARMACEUTICAL COMPOSITION AND USES THEREOF” (HANGZHOU HEALZEN THERAPEUTICS CO., LTD., priority 2021, published 2025)
# Target: BCL2 (Homo sapiens (Human), UniProt P10415)
# Test: Molecular level activity test of anti-apoptotic protein BCL2 (HTRF, binding to Bim peptide)
# Details: HTRF, binding of BCL2 to Bim peptide; read-out: BCL2 nM (inhibitory activity, IC50)
# Procedure, shortened: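 Signal comes from proximity of anti-His-labelled BCL2 and streptavidin-XL665-bound biotin-BIM peptide. Test compounds, added in 2% DMSO, were preincubated with protein and peptide for one hour; detection reagents then incubated four hours at room temperature before reading.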
# Chain of BCL2 (P10415 whole entry): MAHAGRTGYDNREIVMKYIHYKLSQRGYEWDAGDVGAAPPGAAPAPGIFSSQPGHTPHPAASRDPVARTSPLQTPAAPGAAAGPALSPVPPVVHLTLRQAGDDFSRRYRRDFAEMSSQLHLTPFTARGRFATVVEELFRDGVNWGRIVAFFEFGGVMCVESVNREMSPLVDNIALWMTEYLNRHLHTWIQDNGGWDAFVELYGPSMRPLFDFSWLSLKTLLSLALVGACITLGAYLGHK
row,IC50 [nM],SMILES
1,< 10,"COc1ccc(CN2CCN(C3CC4(CCN(c5cc(Oc6cnc7[nH]ccc7c6)c(C(=O)NS(=O)(=O)c6cc([N+](=O)[O-])c(NC[C@H]7CC[C@](C)(O)CC7)c7scnc67)cc5F)CC4)C3)[C@H](c3ccccc3C(C)C)C2)cc1 [compound 116, 2-((1H-pyrrolo[2,3-b]pyrid-5-yl)oxy)-5-fluoro-N-((7-((((1r, 4r)-4-hydroxy-4-methylcyclohexyl)methyl)amino)-6-nitrobenzo[d]thiazol-4-yl)sulfonyl)-4-(2-((R)-2-(2-isopropylphenyl)-4-(4-methoxybenzyl)piperazin-1-yl)-7-azaspiro[3.5]non-7-yl)benzamide]"
2,< 10,"COc1ccc(CN2CCN(C3CC4(CCN(c5cc(Oc6cnc7[nH]ccc7c6)c(C(=O)NS(=O)(=O)c6cc([N+](=O)[O-])c(NC[C@H]7CC[C@](C)(O)CC7)c7oc(C)cc67)cc5F)CC4)C3)[C@H](c3ccccc3C(C)C)C2)cc1 [compound 117, 2-((1H-pyrrolo[2,3-b]pyrid-5-yl)oxy)-5-fluoro-N-((7-((((1r, 4r)-4-hydroxy-4-methylcyclohexyl)methyl)amino)-2-methyl-6-nitrobenzofuran-4-yl)sulfonyl)-4-(2-((R)-2-(2-isopropylphenyl)-4-(4-methoxybenzyl)piperazin-1-yl)-7-azaspiro[3.5]non-7-yl)benzamide]"
3,< 10,"COc1ccc(CN2CCN(C3CC4(CCN(c5cc(Oc6cnc7[nH]ccc7c6)c(C(=O)NS(=O)(=O)c6cc([N+](=O)[O-])c(NC[C@H]7CC[C@](C)(O)CC7)c7c6OCCO7)cc5F)CC4)C3)[C@H](c3ccccc3C(C)C)C2)cc1 [compound 118, 2-((1H-pyrrolo[2,3-b]pyrid-5-yl)oxy)-5-fluoro-N-((8-((((1r, 4r)-4-hydroxy-4-methylcyclohexyl)methyl)amino)-7-nitro-2,3-dihydrobenzo[b][1,4]dioxan-5-yl)sulfonyl)-4-(2-((R)-2-(2-isopropylphenyl)-4-(4-methoxybenzyl)piperazin-1-yl)-7-azaspiro[3.5]non-7-yl)benzamide]"
4,< 10,"COc1ccc(CN2CCN(C3CC4(CCN(c5cc(Oc6cnc7[nH]ccc7c6)c(C(=O)NS(=O)(=O)c6cc([N+](=O)[O-])c(NC[C@H]7CC[C@](C)(O)CC7)c7c6CCO7)cc5F)CC4)C3)[C@H](c3ccccc3C(C)C)C2)cc1 [compound 119, 2-((1H-pyrrolo[2,3-b]pyrid-5-yl)oxy)-5-fluoro-N-((7-((((1r, 4r)-4-hydroxy-4-methylcyclohexyl)methyl)amino)-6-nitro-2,3-dihydrobenzofuran-4-yl)sulfonyl)-4-(2-((R)-2-(2-isopropylphenyl)-4-(4-methoxybenzyl)piperazin-1-yl)-7-azaspiro[3.5]non-7-yl)benzamide]"
5,< 10,"COc1ccc(CN2CCN(C3CC4(CCN(c5cc(Oc6cnc7[nH]ccc7c6)c(C(=O)NS(=O)(=O)c6cc([N+](=O)[O-])c(NCC7CCOCC7)c7ocnc67)cc5F)CC4)C3)[C@H](c3ccccc3C(C)C)C2)cc1 [compound 121, (R)-2-((1H-pyrrolo[2,3-b]pyrid-5-yl)oxy)-5-fluoro-4-(2-(2-(2-isopropylphenyl)-4-(4-methoxybenzyl)piperazin-1-yl)-7-azaspiro[3.5]non-7-yl)-N-((6-nitro-7-(((tetrahydro-2H-pyran-4-yl)methyl)amino)benzo[d]oxazol-4-yl)sulfonyl)benzamide]"
6,< 10,"COc1ccc(CN2CCN(C3CC4(CCN(c5cc(Oc6cnc7[nH]ccc7c6)c(C(=O)NS(=O)(=O)c6cc([N+](=O)[O-])c(NCC7CCOCC7)c7scnc67)cc5F)CC4)C3)[C@H](c3ccccc3C(C)C)C2)cc1 [compound 122, (R)-2-((1H-pyrrolo[2,3-b]pyrid-5-yl)oxy)-5-fluoro-4-(2-(2-(2-isopropylphenyl)-4-(4-methoxybenzyl)piperazin-1-yl)-7-azaspiro[3.5]non-7-yl)-N-((6-nitro-7-(((tetrahydro-2H-pyran-4-yl)methyl)amino)benzo[d]thiazol-4-yl)sulfonyl)benzamide]"
7,< 10,COc1ccc(CN2CCN(C3CC4(CCN(c5cc(Oc6cnc7[nH]ccc7c6)c(C(=O)NS(=O)(=O)c6cc([N+](=O)[O-])c(NC[C@H]7COCCO7)c7c6OCO7)cc5F)CC4)C3)[C@H](c3ccccc3C(C)C)C2)cc1 [compound 123]
8,< 10,COc1ccc(CN2CCN(C3CC4(CCN(c5cc(Oc6cnc7[nH]ccc7c6)c(C(=O)NS(=O)(=O)c6cc([N+](=O)[O-])c(NC[C@H]7COCCO7)c7ocnc67)cc5F)CC4)C3)[C@H](c3ccccc3C(C)C)C2)cc1 [compound 124]
9,< 10,COc1ccc(CN2CCN(C3CC4(CCN(c5cc(Oc6cnc7[nH]ccc7c6)c(C(=O)NS(=O)(=O)c6cc([N+](=O)[O-])c(NC[C@H]7COCCO7)c7scnc67)cc5F)CC4)C3)[C@H](c3ccccc3C(C)C)C2)cc1 [compound 125]
10,< 10,COc1ccc(CN2CCN(C3CC4(CCN(c5cc(Oc6cnc7[nH]ccc7c6)c(C(=O)NS(=O)(=O)c6cc([N+](=O)[O-])c(NCC7(F)CCOCC7)c7c6OCO7)cc5F)CC4)C3)[C@H](c3ccccc3C(C)C)C2)cn1 [compound 126]
11,< 10,"COc1ccc(CN2CCN(C3CC4(CCN(c5cc(Oc6cnc7[nH]ccc7c6)c(C(=O)NS(=O)(=O)c6cc([N+](=O)[O-])c(NCC7(F)CCOCC7)c7ocnc67)cc5F)CC4)C3)[C@H](c3ccccc3C(C)C)C2)cn1 [compound 127, (R)-2-((1H-pyrrolo[2,3-b]pyrid-5-yl)oxy)-5-fluoro-N-((7-(((4-fluorotetrahydro-2H-pyran-4-yl)methyl)amino)-6-nitrobenzo[d]oxazol-4-yl)sulfonyl)-4-(2-(2-(2-isopropylphenyl)-4-((6-methoxypyrid-3-yl)methyl)piperazin-1-yl)-7-azaspiro[3.5]non-7-yl)benzamide]"
12,< 10,"COc1ccc(CN2CCN(C3CC4(CCN(c5cc(Oc6cnc7[nH]ccc7c6)c(C(=O)NS(=O)(=O)c6cc([N+](=O)[O-])c(NCC7(F)CCOCC7)c7scnc67)cc5F)CC4)C3)[C@H](c3ccccc3C(C)C)C2)cn1 [compound 128, (R)-2-((1H-pyrrolo[2,3-b]pyrid-5-yl)oxy)-5-fluoro-N-((7-(((4-fluorotetrahydro-2H-pyran-4-yl)methyl)amino)-6-nitrobenzo[d]thiazol-4-yl)sulfonyl)-4-(2-(2-(2-isopropylphenyl)-4-((6-methoxypyrid-3-yl)methyl)piperazin-1-yl)-7-azaspiro[3.5]non-7-yl)benzamide]"
13,< 10,"COc1ccc(CN2CCN(C3CC4(CCN(c5cc(Oc6cnc7[nH]ccc7c6)c(C(=O)NS(=O)(=O)c6cc([N+](=O)[O-])c(NCC7(F)CCOCC7)c7occc67)cc5F)CC4)C3)[C@H](c3ccccc3C(C)C)C2)cn1 [compound 129, (R)-2-((1H-pyrrolo[2,3-b]pyrid-5-yl)oxy)-5-fluoro-N-((7-(((4-fluorotetrahydro-2H-pyran-4-yl)methyl)amino)-6-nitrobenzofuran-4-yl)sulfonyl)-4-(2-(2-(2-isopropylphenyl)-4-((6-methoxypyrid-3-yl)methyl)piperazin-1-yl)-7-azaspiro[3.5]non-7-yl)benzamide]"
